This note sets out measurements from ChEMBL document CHEMBL4219098, “Unprecedented sugar bridged bisindoles selective inhibiting glioma stem cells” (Bioorg Med Chem, 2018).

Calls of active or inactive are those of the source. No cut-off for these calls is given here.

The species entered for data set [1] is Homo sapiens. Nature of the data set: Induction of intrinsic apoptosis in human GSC18 cells assessed as increase in bcl-2 mRNA levels at 25 uM after 10 days by RT-PCR analysis relative to DMSO. The class given is functional, cell-based.
Data set [2] is filed under the species Homo sapiens. As to the kind of experiment: Induction of intrinsic apoptosis in human GSC18 cells assessed as increase in apaf1 mRNA levels at 25 uM after 10 days by RT-PCR analysis relative to DMSO. The class given is functional, cell-based.
Data set [3] is filed under the species Homo sapiens. Nature of the data set: Cytotoxicity against human GSC18 cells assessed as cell growth inhibition at 25 uM by phenotypic screening-based assay. The class given is functional.
The species entered for data set [4] is Homo sapiens. Nature of the data set: Induction of apoptosis in human GSC18 cells assessed as increase in caspase-3 positive apoptotic cells at 25 uM by immunofluorescence-staining based microscopic analysis. The class given is functional, cell-based.
The species entered for data set [5] is Homo sapiens. Nature of the data set: Induction of apoptosis in human GSC18 cells assessed as increase in calpain1 mRNA levels at 25 uM after 10 days by RT-PCR analysis relative to DMSO. The class given is functional, cell-based.
For data set [6], the species on record is Homo sapiens. As to the kind of experiment: Induction of apoptosis in human GSC18 cells assessed as increase in caspase12 mRNA levels at 25 uM after 10 days by RT-PCR analysis relative to DMSO. The class given is functional, cell-based.
Data set [7] relates to Homo sapiens. As to the kind of experiment: Antiproliferative activity against human GSC18 cells assessed as damage to clonal spheres morphology at 25 uM administered 2 weeks post clonal sphere formation measured after 10 days by crystal violet-staining based assay. The class given is functional, cell-based.
The subject of data set [8] is Homo sapiens. As to the kind of experiment: Antiproliferative activity against human GSC18 cells assessed as decrease in number of clonal spheres at 25 uM administered 2 weeks post clonal sphere formation measured after 10 days by crystal violet-staining based assay. The class given is functional, cell-based.
For data set [9], the species on record is Homo sapiens. As to the kind of experiment: Induction of intrinsic apoptosis in human GSC18 cells assessed as increase in bax mRNA levels at 25 uM after 10 days by RT-PCR analysis relative to DMSO. The class given is functional, cell-based.
For data set [10], the species on record is Homo sapiens. Nature of the data set: Induction of extrinsic apoptosis in human GSC18 cells assessed as increase in IL1 mRNA levels at 25 uM after 10 days by RT-PCR analysis relative to DMSO. The class given is functional, cell-based.
Data set [11] in a line: Cytotoxicity against human GSC18 cells assessed as reduction in cell viability after 4 days by MTS assay. The class given is functional, cell-based. The conditions noted are these: GSC18, 96 h. A general note: Tetrazolium assays rely on reduction of a dye to a coloured formazan, in cell work by metabolically active cells.
The species entered for data set [12] is Homo sapiens. As to the kind of experiment: Antiproliferative activity against human GSC18 cells assessed as reduction in BrdU-positive proliferating cells at 25 uM after 72 hrs by BrdU incorporation assay relative to DMSO. The class given is functional, cell-based. For orientation: Dividing cells build labelled thymidine or BrdU into new DNA.
Data set [13] can be described thus: Cytotoxicity against human GSC12 cells assessed as reduction in cell viability after 4 days by MTS assay. The class given is functional, cell-based. Particulars: GSC12, 96 h.
For data set [14], the species on record is Homo sapiens. Nature of the data set: Cytotoxicity against human GSC12 cells assessed as cell growth inhibition at 25 uM by phenotypic screening-based assay. The class given is functional.
Data set [15] is filed under the species Homo sapiens. As to the kind of experiment: Induction of intrinsic apoptosis in human GSC18 cells assessed as increase in bid mRNA levels at 25 uM after 10 days by RT-PCR analysis relative to DMSO. The class given is functional, cell-based.
Data set [16] concerns HEK-293T. As to the kind of experiment: Cytotoxicity against human 293T cells assessed as cell growth inhibition at 25 uM by phenotypic screening-based assay.
A short description of data set [17]: Cytotoxicity against human HAC cells assessed as cell growth inhibition at 25 uM by phenotypic screening-based assay.
The species named for data set [18] is Homo sapiens. Nature of the data set: Induction of extrinsic apoptosis in human GSC18 cells assessed as increase in TNFalpha mRNA levels at 25 uM after 10 days by RT-PCR analysis relative to DMSO. The class given is functional, cell-based.
Data set [19] in a line: Cytotoxicity against human HAC cells assessed as reduction in cell viability after 4 days by MTS assay. The class given is cell-based. Particulars: 96 h.
Data set [20] relates to HEK-293T. Nature of the data set: Cytotoxicity against human 293T cells assessed as reduction in cell viability after 4 days by MTS assay. The class given is cell-based. Particulars: 96 h.

In the case of `C=C[C@H]1[C@H](O[C@@H]2O[C@H](CO[C@H]3C[C@@]45c6ccccc6N[C@]4(O3)[C@@H]3C[C@@H](/C(=C/C)C=[N+]3[O-])[C@H]5CC(=O)OC)[C@@H](O)[C@H](O)[C@H]2O)OC=C2C(=O)N3CCc4c([nH]c5ccccc45)[C@@H]3C[C@H]21`, the outcome in [1], in data set [2], in data set [5], in [6], in [9] and in [15] was inactive. The “growth inhibition (GI)” value in data set [3] and in data set [14] was “Active” in each case. Further, the outcome in data set [4], in data set [7], in data set [8], in [10], in data set [12] and in [18] was Active. Moreover, the IC50 (as a rule, the midpoint of a concentration-inhibition curve) in data set [11] was 16.1 µM; in [13], 20.7 µM; in [19] it was more than 90 µM; in [20], more than 90 µM. Further, the Activity entry in data set [16] and in [17] was “Non-Toxic” in each case.
As to `C=C[C@H]1[C@H](O[C@@H]2O[C@H](CO[C@H]3C[C@@]45c6ccccc6N[C@]4(O3)[C@@H]3C[C@@H](/C(=C\C)C=[N+]3[O-])[C@H]5CC(=O)OC)[C@@H](O)[C@H](O)[C@H]2O)OC=C2C(=O)N3CCc4c([nH]c5ccccc45)[C@@H]3C[C@H]21`, the result in data set [1], in data set [2], in data set [5], in data set [6], in data set [9] and in [15] was inactive. In addition, the “growth inhibition (GI)” value in data set [3] and in [14] was “Active” in each case. Besides, the result in data set [4], in [7], in data set [8], in data set [10], in [12] and in [18] was Active. Besides, the IC50 was 19.2 µM in data set [11], 30.9 µM in data set [13], more than 90 µM in data set [19] and more than 90 µM in data set [20]. Moreover, the Activity entry in [16] and in data set [17] was “Non-Toxic” throughout.
Consider `CC(=O)O[C@H]1C(=O)[C@@]2(C)[C@H]([C@H](OC(=O)c3ccccc3)[C@]3(O)C[C@H](OC(=O)[C@H](O)[C@@H](NC(=O)c4ccccc4)c4ccccc4)C(C)=C1C3(C)C)[C@]1(OC(C)=O)CO[C@@H]1C[C@@H]2O` [PACLITAXEL], for which the IC50 in data set [11] worked out at 10.4 µM; in data set [13], 12.5 µM; in data set [19], 0.0121 µM; in [20] it was 0.0023 µM.
